# Where a name gives a salt, the structure may show the parent alone. Marks after values point to notes of the source that are not given here.
# Columns and labels:
# toxic extensor seizure = experiment: Mouse maximal electroshock test (MES), anticonvulsant model; format: in vivo; conditions: for MES Response, number of mice protected/number of mice tested: oral, 300 mpk
# Description: Procedure for Testing in Mouse Anticonvulsant Model
# The activity of the present compounds as anticonvulsant agents was determined using a standard mouse “maximal electroshock test” (MES). In this test, activity was indicated by a block of the […] extensor seizure, as described by Swinyard, et al. (J. Pharmacol. Exptl. Therap., 1952, 106, 319). A more recent description of current anticonvulsant drug screening is given in Swinyard, et al., in Epilepsia, 1978, 19, 409.
# The anticonvulsant activity of the instant compounds is shown in Table 5 and was evaluated according to the Swinyard (1952) method. The abbreviations used in the table have the following meanings: mpk refers to the dose orally administered in “mg per Kg;” and, ED50 refers to the “50% Effective Dose” orally administered in mpk. The values marked by an * represent the number of mice protected/number of mice tested; therefore, a value of 3/3 represents that the number of mice protected matched the number of mice tested at the indicated dose.
# mechanical allodynia = experiment: Chung Model (spinal nerve ligation), mechanical allodynia with von Frey hairs; format: in vivo; design: key to Chung Model result in words (IA): IA: inactive at the screening dose; conditions: rat; for ED50 in the Chung Model: orally administered; for Chung Model result in words (IA) / % MPE (Maximum Possible Effect) in the Chung Model: oral, screening dose (not given)
# Source text: Procedure for Testing Antiallodynic Effect
# The procedure used to detect the antiallodynic effect of a compound of the present invention for which there is a good correlation with human efficacy for the treatment of pain is the procedure for the measurement of allodynia found in the Chung Model (Kim S. H. and Chung J. M., An Experimental Model for Peripheral Neuropathy Produced by Segmental Spinal Nerve Ligation in the Rat, Pain, 1992, 50, 355-363). The antiallodynic effect of the composition of the present invention in the Chung Model is expressed in % MPE (Maximum Possible Effect).
# Male Sprague-Dawley rats, weighing approximately 200 g each were anesthetized with isoflurane. The spinal nerve at the level of L5 was exposed through an incision just left of the dorsal midline and tightly ligated with 6-0 silk. At various times after surgery, animals were tested for mechanical allodynia with von Frey hairs (monofilaments which are calibrated to bend under a certain amount of pressure, ranging from 0.41 to 15.1 g). In order to calculate a paw withdrawal threshold (PWT), tactile allodynia was measured by recording the pressure at which the affected paw was withdrawn from graded stimuli according to the procedure of S. R. Chaplan, J. W. Pogrel, T. L. Yaksh, Role of Voltage-Dependent Calcium Channel Subtypes in Experimental Tactile Allodynia, J. Pharmacol. Exp. Ther., 1994, 269, 1117-1123. Normal rats can withstand at least 15 g of pressure without responding. Operated rats, however, can respond to as little as 0.25 g of pressure. The surgery was deemed successful if the animal responded with a PWT of less than 4 g of pressure applied to the affected paw. […] The PWT was used to calculate the % maximal possible effect (% MPE) according to the formula:
# % MPE=100×[(PWT−CT)/(CO−CT)];
# wherein PWT is defined as Paw Withdrawal Threshold, CT is Control Threshold, and CO is Cut Off (defined as 15 g).
# The sham operation consisted of a similar surgery; the spinal nerve was visualized without being ligated.
# Compounds selected from Formula (I) and Formula (II) were tested for activity in treating or modulating neuropathic pain by being dissolved or suspended in either water or hydroxypropyl methylcellulose, respectively. […] were fasted overnight prior to dosing. Animals were orally dosed and dosage volumes were calculated on a 4 mL/kg basis.
# [1] = test system: voltage-gated sodium channels; experiment: [14C]guanidinium flux assay, veratridine-stimulated SK-N-SH cells; format: cell-based; conditions: 100 μM compound, 100 μM veratridine
# Description: Screening Assay for Voltage-Gated Sodium Channel Antagonists
# [^14C] Guanidinium Flux Assay
# SK-N-SH neuroblastoma cells were maintained in a propagation medium containing modified Eagle's medium and 10% (v/v) fetal bovine serum and were incubated at 37° C. in a 5% CO2 atmosphere. Only cells with fewer than 20 passages were used in each assay. All drugs were prepared in DMSO, and the final concentration of solvent was less than 0.1% (v/v). Veratridine, a toxin that selectively promotes persistent activation of voltage-gated sodium channels, served as the stimulus.
# SK-N—SH cells were plated at 1×10^5 cells/well in 96-well Cytostar-T microscintillating plates in propagation medium and experiments were performed 6-7 days after plating. Prior to assay, the SK-N-SH cells were washed twice with assay buffer containing 50 mM HEPES (pH 7.45), 5.4 mM potassium chloride, 0.8 mM magnesium chloride, 130 mM choline chloride, 5.5 mM glucose and 0.1 mg/mL bovine serum albumin. Next, the plates were allowed to equilibrate for 10 min at 37° C. in assay buffer. […] The 96-well dosing plate was prepared by mixing 25 μL of a drug/assay buffer solution per well with 25 μL of 0.7 μCi/mL [^14C]guanidine hydrochloride in assay buffer. […] The plates were incubated for 1 hr at room temperature and the radioactivity was counted in a 1450 Microbeta scintillation counter. […]
melting point [°C],SMILES,also measured
174 to 176,"Cc1c(C(O)c2ccncc2)c(C)n(C)c1C(=O)c1ccc(Cl)cc1 (stereo not drawn) (as salt: hydrochloride) [Cpd 18, (4-Chlorophenyl)-[4-(hydroxypyridin-4-yl-methyl)-1,3,5-trimethyl-1H-pyrrol-2-yl]methanone]",–
155 to 157,"Cn1cc(C(=O)c2ccc(F)cc2)cc1C(=O)c1ccncc1 [Cpd 11, (4-Fluorophenyl)-[1-methyl-5-(pyridine-4-carbonyl)-1H-pyrrol-3-yl]methanone]","MES Response, number of mice protected/number of mice tested (toxic extensor seizure): 0/1* @ 300 mpk"
198 to 200,"Cn1cc(C(=O)c2cnc[nH]2)cc1C(=O)c1ccc(Cl)cc1 [Cpd 13, (4-Chlorophenyl)-[4-(3H-imidazole-4-carbonyl)-1-methyl-1H-pyrrol-2-yl]methanone]",Chung Model result in words (IA) (mechanical allodynia): IA
85 to 88,"Cc1c(C(=O)c2ccc(F)cc2)c(C)n(C)c1C(=O)c1cccnc1 [Cpd 17, (4-Fluorophenyl)-[1,2,4-trimethyl-5-(pyridine-3-carbonyl)-1H-pyrrol-3-yl]methanone]",–
182 to 184,"Cn1cc(C(=O)c2ccnc(Cl)c2)cc1C(=O)c1ccc(Cl)cc1 [Cpd 19, (4-Chlorophenyl)-[4-(2-chloropyridine-4-carbonyl)-1-methyl-1H-pyrrol-2-yl]methanone]",–

# More lines, now with the values behind:
SMILES,melting point [°C],also measured
"Cn1cc(C(=O)c2ccncc2)cc1C(=O)c1ccc(Cl)cc1 [Cpd 1, [5-(4-Chlorobenzoyl)-1-methyl-1H-pyrrol-3-yl]pyridin-4-ylmethanone]",174 to 175,MES Response ED50 (toxic extensor seizure; orally administered): ED50 = 156.97 mpk; ED50 in the Chung Model (mechanical allodynia): ED50 = 22 mpk
"Cn1cc(C(=O)c2ccncc2)cc1C(=O)c1ccccc1 [Cpd 2, (5-Benzoyl-1-methyl-1H-pyrrol-3-yl) pyridin-4-ylmethanone]",127 to 129,–
"Cc1ccc(C(=O)c2cc(C(=O)c3ccncc3)cn2C)cc1.Cl [Cpd 3, [1-Methyl-5-(4-methyl benzoyl)-1H-pyrrol-3-yl]pyridin-4-ylmethanone Hydrochloride]",134 to 136,–
"Cl.Cn1cc(C(=O)c2ccncc2)cc1C(=O)c1cccs1 [Cpd 4, [1-Methyl-5-(thiophene-2-carbonyl)-1H-pyrrol-3-yl]pyridin-4-ylmethanone Hydrochloride]",243 to 245,"MES Response, number of mice protected/number of mice tested (toxic extensor seizure): 0/1* @ 300 mpk; Chung Model result in words (IA) (mechanical allodynia): IA"
"Cl.Cn1cc(C(=O)c2cccnc2)cc1C(=O)c1ccc(Cl)cc1.Cn1cc(C(=O)c2cccnc2)cc1C(=O)c1ccc(Cl)cc1.O [Cpd 5, [5-(4-Chlorobenzoyl)-1-methyl-1H-pyrrol-3-yl]pyridin-3-ylmethanone Hydrochoride Hydrate [2:1:1]]",–,% MPE (Maximum Possible Effect) in the Chung Model (mechanical allodynia): 9%
"Cn1cc(C(=O)c2ccccn2)cc1C(=O)c1ccc(Cl)cc1 [Cpd 6, [5-(4-Chlorobenzoyl)-1-methyl-1H-pyrrol-3-yl]pyridin-2-yl-methanone]",138 to 139,–
"Cl.Cn1cc(C(=O)c2ccc(F)cc2)cc1C(=O)c1cccnc1 [Cpd 7, (4-Fluorophenyl)-[1-methyl-5-(pyridine-3-carbonyl)-1H-pyrrol-3-yl]methanone Hydrochloride]",220 to 223,ED50 in the Chung Model (mechanical allodynia): ED50 = 22 mpk
"Cn1cc(C(=O)c2ccc3ccccc3c2)cc1C(=O)c1cccnc1 [Cpd 8, [1-Methyl-5-(pyridine-3-carbonyl)-1H-pyrrol-3-yl]naphthalen-2-yl-methanone]",132 to 133,"MES Response, number of mice protected/number of mice tested (toxic extensor seizure): 0/1* @ 300 mpk"
"Cn1cc(C(=O)c2ccc(Cl)cc2)cc1C(=O)c1ccc(Cl)nc1 [Cpd 9, (4-Chlorophenyl)-[5-(6-chloropyridine-3-carbonyl)-1-methyl-1H-pyrrol-3-yl]methanone]",150 to 152,–
"Cn1cc(C(=O)c2ccc(F)cc2)cc1C(=O)c1ccccn1 [Cpd 10, (4-Fluorophenyl)-[1-methyl-5-(pyridine-2-carbonyl)-1H-pyrrol-3-yl]methanone]",159 to 161,"MES Response, number of mice protected/number of mice tested (toxic extensor seizure): 0/1* @ 300 mpk"
"Cn1cc(C(O)c2ccncc2)cc1C(=O)c1ccc(Cl)cc1 (stereo not drawn) [Cpd 12, (4-Chlorophenyl)-[4-(hydroxypyridin-4-yl-methyl)-1-methyl-1H-pyrrol-2-yl]-methanone]",145 to 146,% GFI (% guanidinium flux inhibition) @ 100 μM [1]: 4 @ 100%
"Cn1cc(C(=O)c2cc[n+]([O-])cc2)cc1C(=O)c1ccc(Cl)cc1 [Cpd 15, (4-Chlorophenyl)-[1-methyl-4-(1-oxypyridine-4-carbonyl)-1H-pyrrol-2-yl]methanone]",–,% MPE (Maximum Possible Effect) in the Chung Model (mechanical allodynia): 7.9%
